Assay results from publication PMC5510229, “BCAT1 controls metabolic reprogramming in activated human macrophages and is associated with inflammatory diseases” (Nature Communications, 2017).

Columns and labels:
[1] = system: mouse peritoneal macrophages; assay: Mouse i.p. injection of LPS and ERG240, peritoneal macrophages analysed; type: in vivo, C57BL/6 mice
Method: Figure 4 Bcat1 inhibition blocks itaconate production in vivo and polarizes peritoneal macrophages. Mouse peritoneal macrophages from vehicle (saline), LPS-injected (1.5 mg kg^−1) or LPS+ERG240 (500 mg kg^−1)–injected mice were isolated and pooled 24 h following i.p. injection (n=6 mice per group). Irg1 protein (a), mRNA (b) levels, as well as itaconate measurements by GC/MS (c) are shown. […] Peritoneal macrophages were collected 24 h following the LPS injection. n=3 mice/group. (d) Protein–protein interaction (PPI) network in 100 top (97 annotated) differentially expressed genes between LPS and LPS+ERG240 treated mouse peritoneal macrophages illustrated by STRING (high confidence score=0.7). The IFN-inducible GTPase cluster is shown within a dashed circle. (e) Distribution of the fold changes and the FDR-adjusted P values (−log10 (FDR)) for the comparison between LPS and LPS+ERG240 treated macrophages. The IFN- inducible GTPase genes, M1-like, M2-like and extracellular matrix transcripts are shown in blue. (f) Fragments per kilobase of transcript per Million mapped reads (FPKM) values for Nos2, Il6 are shown in vehicle, LPS and LPS+ERG240-treated peritoneal macrophages. (g) FPKM values for Ifit1, Ifit2, Ifit3, Gbp1, Gbp2, Gbp4, Gbp7, Mrc1, Klf4, Cd36, Fn1, Mmp9, Gsn and Spp1. FPKM=1 is shown as a dashed line to denote minimal expression levels. All transcripts analysed by RNA-seq (f,g) show significant FPKM upon ERG240 treatment when compared to LPS group (FDR<10^−73). Error bars are s.e.m. Significance was tested using one-way ANOVA. *P<0.05 by ANOVA.
The procedure was performed by Washington Biotechnology Inc. (Baltimore, MD). […] Same dose of ERG240 was administered a second time, 8 h following the first injection of LPS. Peritoneal macrophages were harvested 24 h after the LPS injection and results from three groups (vehicle, LPS only, LPS+ERG240; n=6 mice in each group) were analysed in terms of IRG1 and itaconate level measurements.
For itaconate, cells pellets containing 1.5 × 10^6 hMDMs were quenched with 400 μl of methanol, previously chilled at −20 °C. After addition of 400 μl of cold (4 °C) ultrapure water, cell pellets were vortexed briefly and then allowed to stand for 10 min on ice. Following addition of 400 μl of GC/MS grade dichloromethane, previously chilled at −20 °C, samples were vortexed again and centrifuged at 14,000g for 10 min at 4 °C. The aqueous layer of the samples was collected and lyophilized. Dried materials were dissolved in 40 μl of MOX solution, which is prepared by allowing 20 mg of methoxamine HCl (Sigma Aldrich) to dissolve in 500 μl pyridine for 30 min at room temperature. Metabolites dissolved in MOX were incubated at 45 °C for 60 min, derivatized by adding 60 μl of N-methyl-N-(trimethylsilyl) trifluoroacetamide (MSFTA, Mecherey-Nagel) and incubated at 45 °C for 30 min. After a brief centrifugation, derivatized metabolites were transferred into clean GC/MS vials and analysed for the presence of itaconic acid (itaconate) using a 7890A GC System (Agilent Technologies) equipped with an Agilent J&W DB-5ms column (30 m, 0.25 mm, 0.25 μm), connected to an 5975C Triple-Axis MS Detector (Agilent Technologies) and outfitted with an autosampler. The MS source was held at 230 °C and the quadrupole at 150 °C. The GC oven temperature was held at 50 °C for 5 min, increased to 240 °C at a rate of 10 °C min^−1, held at 240 °C for 5 min and increased to 300 °C at a rate of 10 °C min^−1. A volume of 1 μl was injected in the system in a 1:3 split mode. The amount of itaconate present in the sample was determined after peak integration. For citrate, the frozen cell pellets were re-suspended in ice-cold ethanol-phosphate buffer. Cells were lysed by three freeze-thaw cycles and sonication. Samples were centrifuged and the supernatant was used for further analysis. […]

[2] = Dose-escalating toxicity study; type: in vivo; details: oral or intraperitoneal administration, doses up to 2 g kg^−1
[3] = LPS 1.5 mg kg^−1 + ERG240 500 mg kg^−1 i.p., 24 h
[4] = LPS+ERG240 vs LPS, peritoneal macrophages, 24 h

CC(=O)C(C)CCC(=O)O (stereo not shown) [ERG240]
itaconate in peritoneal macrophages, sequential treatment ([1]; ERG240 administered 3 h after the first LPS injection, collected 24 h): equally decreased
Il6, Gbp4 expression levels, sequential treatment ([1]; ERG240 administered following 3 hours of LPS, qRT-PCR): inhibitory effect
Irg1 mRNA and protein levels in peritoneal macrophages [1, 3]: reduction
itaconate in peritoneal macrophages [1, 3]: significant decrease
IFN-inducible GTPase signature genes and M1-like markers (Nos2, Il6), RNA-seq [1, 4]: down-regulated
M2-like and extracellular matrix transcripts, RNA-seq [1, 4]: up-regulated
adverse effects in dose-escalating toxicity study [2]: no major adverse effects
